Assay results taken from ChEMBL document CHEMBL3507680, “University of Dundee, Gates Library screen for HepG2 cell viability”.

Assay: Human HepG2 cell viability assay in 384 well format
Type: toxicity, cell-based
Design: dose 125 nL, time 70.5 hour; concentration not given beside the values
Conditions: HepG2 cells, read-out: Inhibition

SMILES | cytotoxicity at 70.5 h [%]
CCc1nc2c(N3CCC4(CC3)CC(=O)N(CC(C)C)C4)ncnc2o1 | 1.84
CC(C)n1cnnc1CN(C)Cc1ccc(CN(C)S(C)(=O)=O)o1 | -2.72
Cc1cccc(CN2CCCC3(CCN(CC4CCCO4)CC3)C2)n1 (stereo not drawn) | -11.4
CNS(=O)(=O)Cc1ccc(CNC(=O)Nc2cccnc2)cc1 | 13.3
O=C1NC[C@@]2(C(=O)O)CN(Cc3cccc(OC4CCCC4)c3)C[C@@H]12 | -3
CC(CCN1CCC(n2cc(CCO)nn2)CC1)c1ccccc1 (stereo not drawn) | -8.84
CCn1c(Cn2cncn2)nnc1C1CCN(Cc2ccncc2)CC1 | -6.34
Cc1cc(C)n(CCNc2ncnc3c2NC(=O)CN3)n1 | -15.7
Cc1cc(CC(=O)NC2CCCN(c3ccccc3Cl)C2=O)n[nH]1 (stereo not drawn) | -19
O=C(c1cc2c(s1)CCCC2)N1CCCC1Cn1cccn1 (stereo not drawn) | -4.37
CCCc1noc(CN2CCC(C(=O)Nc3cnn(CC)c3)CC2)n1 | -14.6
Cc1cn2c(CN(C)C(=O)c3ncoc3C)c(C)nc2s1 | -0.848
CN(Cc1coc(-c2ccccc2)n1)C1CCCN(c2cccnn2)C1 (stereo not drawn) | -7.45
CN(CCNC(=O)N1CCN(Cc2ccon2)CC1)c1ccccc1 | -5.16
Cn1ccc(C(=O)Nc2nc(-c3ccc(Cl)cc3)n[nH]2)cc1=O | 24.6
COC[C@@]12CCO[C@@H]1CCN(C(=O)COc1ccc(C)cc1)C2 | -2.71
O=C(Nc1ccccc1)N1CCc2nc(C(=O)N3CCCC3)sc2CC1 | -2.49
CCOc1cccc(NC(=O)Cc2cccc(O)c2)n1 | 16.2
Cc1nc(C)n(CC2CN(c3ncccc3C#N)CCO2)n1 (stereo not drawn) | -0.989
Cc1cc(NCC2CCCO2)cc(=O)n1C (stereo not drawn) | -9.63
O=C(c1ccc[nH]1)N1C[C@H](OCc2ccccn2)[C@H]2COC[C@H]21 | -5.92
CCOc1c(OC)cc(/C=C/c2ncc(C(=O)NC)s2)cc1OC | -7.3
Cc1ccc(S(=O)(=O)N(CCO)C2CC2)cc1N(C)C | 2.04

SMILES | cytotoxicity at 70.5 h [%]
CC(=O)N1CCN(C(=O)CCCc2nc(C(C)C)no2)CC1 | 11.7
CCCS(=O)(=O)c1ccc(N2CCC(Cc3ccccc3)CC2)nn1 | -2.73
Cc1cc(N2CCN(Cc3cn(C)nc3C)CC2)cc(C2CCCN2)n1 (stereo not drawn) | -1.66
CCc1nc(CN2CCCN(C(=O)C(C)n3ccnc3)CC2)cs1 (stereo not drawn) | -9
Cc1cnn(CC2CCCN2C(=O)c2cnc3n[nH]c(C)c3c2)c1 (stereo not drawn) | 15.1
CCCN(CCc1ccccc1)C(=O)c1ccccc1NCC(=O)O | -7.74
Cc1cccc(C)c1OC1CCN(Cc2ccn(C)c(=O)c2)CC1 | -5.76
Cc1ccc(-n2nc3n(c2=O)CCN(C(=O)c2ccc(Cl)cc2)C3)cc1 | -10.2
Cc1c(C(=O)NCC2CCN(Cc3c[nH]cn3)C2)[nH]c2ccccc12 (stereo not drawn) | 8.7
CN(C)CCn1c(=O)oc2ccc(NC(=O)c3cc(Cl)c[nH]3)cc21 | -2.49
Cc1cc2[nH]c(CN3CCOC(Cc4ccccc4)C3)cc(=O)n2n1 (stereo not drawn) | 18.7
CSc1nc2ccsc2c(=O)n1CC(=O)NC1CCCC1 | -6.44
Cc1c(C(=O)N2CCC(O)(CN(C)C)C2)c2cc(O)ccc2n1C (stereo not drawn) | -9.59
COCCCC1(CO)CCCN(CCc2ccccc2)C1 (stereo not drawn) | -1.1
Cc1cc(NS(=O)(=O)c2cccs2)ccc1-n1cccc1C(=O)O | -1.78
O=C(c1cnccn1)N1CCN(Cc2cscn2)CC1 | 31.3
CC(=O)N1Cc2ccccc2CC1C(=O)Nc1ccc(N(C)C)cn1 (stereo not drawn) | -24.9
c1ccc(NC[C@@H]2CCC[C@@H]3CN(Cc4csnn4)C[C@@H]32)nc1 | -5.27
CN(C)C(=O)CN(C)C(=O)c1cnc(Cc2ccc(F)cc2)s1 | -0.843
CC(NC(=O)CCc1ccsc1)c1ccc2c(c1)NC(=O)CO2 (stereo not drawn) | -6.31
O=C(NC1CCN(CC2CCCC2)C1)N1CCC(OCC2CC2)CC1 (stereo not drawn) | 6.83
Cc1nc(C)c(C)c(NCCSc2ccccn2)n1 | -6.54
CC(CO)(NC(=O)Nc1nnc(C2CC2)s1)C1CCCCC1 (stereo not drawn) | -11.1

SMILES | cytotoxicity at 70.5 h [%]
Cc1cc(C(=O)NCc2cccnc2N2CCc3ccccc3C2)[nH]n1 | -3.47
O=C(CCc1nccs1)N1CCN(c2ncccn2)CC1 | -1.61
CN(C(=O)CN1CCCC1Cc1ccccc1)c1ccccc1 (stereo not drawn) | -7.08
Cc1oncc1C(=O)NCC(c1ccccc1Cl)N1CCOCC1 (stereo not drawn) | -3.09
CC(C)[C@H]1CN(C(=O)CO)C[C@@H]1N(C)C | -13.8
CC(=O)N1CCO[C@@H]2CN(C(=O)c3ccc4ncccc4c3)CC[C@@H]2C1 | -3.03
c1ccc(OCCSC2=NCCN2)cc1 | -2.35
CCS(=O)(=O)N1CCC2(CC1)CC1(CCN(CCOC)CC1)C(=O)N2C | -6.01
CNC(=O)C(C)(C)N1CCC[C@H]1C(=O)NCCN1CCCC1 | 5.17
Cc1ccc(-c2nc(CN3CCOC(c4ccccc4)C3)cs2)o1 (stereo not drawn) | -9.61
COC(=O)[C@@H]1CN(C(=O)Nc2ccccc2)CCN1C(C)=O | -7
CN1CCN(Cc2cccnc2)C(=O)C12CCN(C1CCOC1)CC2 (stereo not drawn) | -5.29
COc1cccc2cc(CNCc3ccnc(N4CCCCC4)c3)oc12 | 3.87
O=C(Cc1cccs1)N1CCCCC1c1ccn2ccnc2n1 (stereo not drawn) | -5.26
CCN(Cc1ccncc1)c1cc(C2CCCNC2)nc(C)n1 (stereo not drawn) | -7.35
CC(C)NC(=O)CN1CCC2(CC1)OCCO2 | -2.05
CC(C)NC(=O)N1CCC(c2nnc3n2CCNC3)CC1 | 16.3
CC(C)NC(=O)C1CCc2nnc(C(C)(C)C)n21 (stereo not drawn) | -5.68
Cc1nc(CN2CCCC23CCN(c2nc4ccccc4s2)CC3)co1 | -12.9
CN1CCO[C@@H]2CN(C(=O)c3ccc4[nH]ccc4c3)CC[C@@H]2C1 | -10.4
COc1cccc([C@H]2CN(C(=O)c3ccccc3)[C@@H]3CCCN[C@H]23)c1 | 15.6
CCc1noc(CN2CCN(C(=O)Cc3ccc(F)cc3)CC2)n1 | -5.71
CC1CCN(c2cc(NC(=O)C3CC3)ncn2)CC1 | 0.806

SMILES | cytotoxicity at 70.5 h [%]
Cc1nnc2n1CCN(C(C(=O)NC(C)C)c1ccccc1)C2 (stereo not drawn) | 19.5
C[C@H]1C(=O)NC[C@H]2CN(CCc3ccccc3)C[C@H]21 | -9.77
CC(C)c1ncc2c(n1)CN(Cc1nc3c(F)cccc3[nH]1)CC2 | 21
CN1CCC(N(C)CCC(=O)N2CCN(Cc3cccc(F)c3)CC2)C1 (stereo not drawn) | -0.236
Cc1ccc(C(=O)N2CCC3(CC2)COC(COc2ccccn2)C3)o1 (stereo not drawn) | -4.24
CN(C)[C@@H]1CCN(C(=O)c2ccccn2)[C@H]1Cc1ccncc1 | -13
CC(C)CCN1CCN(C(=O)c2ccc(=O)[nH]n2)CC1 | -7.24
COCC1CN(Cc2c(C)noc2C)Cc2ccnn2C1 (stereo not drawn) | -9.74
CC(C)(C)C(=O)NC[C@H]1Cn2c(-c3ccccc3)cnc2CO1 | -9.72
Cc1ccc(F)c(OC2(C(=O)O)CCN(C(=O)c3ccco3)CC2)c1 | -7.46
COC(=O)N1CCCC(NC(=O)NCc2csc(C)n2)C1 (stereo not drawn) | -10.6
O=C(COCC1CC1)N1CCCC(n2ccnc2)C1 (stereo not drawn) | 5.1
COc1cccn(CC(=O)N(C)CCC2CCOCC2)c1=O | 25
O=C(CN1CCCC1c1nc(-c2ccccn2)no1)N1CCNCC1 (stereo not drawn) | -4.93
CCN(CC)C(=O)[C@@H]1C[C@@H](NC(=O)c2cccc(N(C)C)c2)CN1C | 26.1
CCC/C=C/c1ccc(CN2CCN(C)CC2)cn1 | 26
COC(=O)C(C)(C)NC(=O)C1CC(=O)N(C2CC2)C1 (stereo not drawn) | -6.5
CN(C)CCn1cc(NC(=O)NC(C)(C)c2nccs2)cn1 | -3.3
CC1CN(C)CCN1C(=O)Nc1nc(-c2ccc[nH]2)cs1 (stereo not drawn) | -14.7
CS(=O)(=O)N1CCC(c2nc3ccc(-c4cccc(F)c4)cn3n2)CC1 | -5.73
Cc1nc(C)n(CC2CCCN2Cc2nc3ccccc3c(=O)[nH]2)n1 (stereo not drawn) | -1.61
CCOC(C)c1noc(CN(C)C(=O)c2ccncc2)n1 (stereo not drawn) | 0.244
CCc1ccc(CN(C)c2ccc(-c3nc(COC)no3)cn2)nc1 | -4.59

SMILES | cytotoxicity at 70.5 h [%]
c1ccc(COC[C@@H]2CCC[C@]23CN(Cc2nccs2)CCO3)nc1 | 5.78
CNC(=O)[C@@H](c1ccccc1OC)N1CCC[C@H]1C(=O)N1CCC1 | -5.76
Cc1nn(C)cc1-c1ccnc(N(C)Cc2cnn(C)c2)n1 | -2.26
CCNC(=O)CNS(=O)(=O)c1cc(Br)ccc1F | -2.68
CCCc1cncnc1N1CCC2(CCC(=O)N(C3CCCC3)C2)CC1 | -12.7
Cc1nc(C)c(C(=O)N2CCc3c(Cl)cccc32)o1 | 1.38
CNC(=O)N1CCc2cc(C(=O)N(C)C)c(NCC3CC3)nc2CC1 | -12
CC(C)OCCOCC(O)CN(C)C(=O)Nc1ccc(F)cc1Cl (stereo not drawn) | -2.75
Cc1nc(C2CCCN2CC(=O)Nc2c(C)nn(C)c2C)no1 (stereo not drawn) | -3.49
COc1cc(C(C)=O)ccc1OCC(=O)N(C)Cc1cnn(C)c1 | -7.56
CCc1nc(C#N)c(N2CCC(c3nc(-c4ccccc4)no3)CC2)o1 | 0.267
COc1c(C2CCCN2C(=O)c2cccc(C(N)=O)c2)c(C)nn1C (stereo not drawn) | 18.9
c1cncc(CN2CCn3cc(Cn4cccn4)nc3C2)c1 | -7.42
NC(=O)c1ccc(C(=O)N2CCCCC2Cn2cccn2)s1 (stereo not drawn) | 19.1
CCOCCN1CCN(c2ccc(C#N)cn2)CC1 | -9.92
Nc1nccnc1C1CN(C(=O)c2ccc3c(c2)OCO3)CCO1 (stereo not drawn) | -13.9
Cc1cc(C[C@@H]2COC[C@@H]2NC(=O)CN2CCCCCC2)on1 | -10.1
CSc1ccc(CN(CCO)C(=O)CCc2cccc(F)c2)cc1 | -15.9
COCCN1CCCC1c1cccc2c1OCCO2 (stereo not drawn) | 7.8
COc1c(CNCc2ccc(C(=O)N3CCCC3)cc2)c(C)nn1C | 10.8
Cc1c(C(C)N)cnn1-c1ccccn1 (stereo not drawn) | -8.01
